In ChEMBL document CHEMBL3526057 (Drug Metab Dispos, 2011):

Legend:
Assay type in all cases: ADME
Conditions in all cases: recombinant enzyme, 1 h
Cytochrome P450 2C19 [1] = target: T1, Cytochrome P450 2C19 (Homo sapiens, UniProt P33261, E122A); test: Activity of human recombinant CYP2C19 E122A mutant expressed in Saccharomyces cerevisiae BJ5457 assessed asomeprazole 5'-hydroxylation per pmol protein after 60 mins
Cytochrome P450 2C19 [2] = target: T2, Cytochrome P450 2C19 (Homo sapiens, UniProt P33261, S51G); test: Activity of human recombinant CYP2C19.19 mutant expressed in Saccharomyces cerevisiae BJ5457 assessed as omeprazole 5'-hydroxylation per pmol protein at 5 uM after 60 mins
Cytochrome P450 2C19 [3] = target: T3, Cytochrome P450 2C19 (Homo sapiens, UniProt P33261, M74T); test: Activity of human recombinant CYP2C19 M74T mutant expressed in Saccharomyces cerevisiae BJ5457 assessed asomeprazole 5'-hydroxylation after 60 mins
Cytochrome P450 2C19 [4] = target: T4, Cytochrome P450 2C19 (Homo sapiens, UniProt P33261, W212C); test: Activity of human recombinant CYP2C19 W212C mutant expressed in Saccharomyces cerevisiae BJ5457 assessed as omeprazole 5'-hydroxylation per pmol protein at 5 uM after 60 mins
[5] = Activity of human recombinant CYP2C19.6 mutant expressed in Saccharomyces cerevisiae BJ5457 assessed as omeprazole 5'-hydroxylation per pmol protein at 100 uM after 60 mins
Cytochrome P450 2C19 [6] = target: Cytochrome P450 2C19 (Homo sapiens, UniProt P33261, R410C); test: Activity of human recombinant CYP2C19.13 mutant expressed in Saccharomyces cerevisiae BJ5457 assessed asomeprazole 5'-hydroxylation after 60 mins
Cytochrome P450 2C19 [7] = target: T5, Cytochrome P450 2C19 (Homo sapiens, UniProt P33261, R150H); test: Activity of human recombinant CYP2C19.11 mutant expressed in Saccharomyces cerevisiae BJ5457 assessed as omeprazole 5'-hydroxylation per pmol protein at 100 uM after 60 mins
Cytochrome P450 2C19 [8] = target: T2, Cytochrome P450 2C19; test: Activity of human recombinant CYP2C19.19 mutant expressed in Saccharomyces cerevisiae BJ5457 assessed asomeprazole 5'-hydroxylation per pmol protein after 60 mins
Cytochrome P450 2C19 [9] = target: Cytochrome P450 2C19 (Homo sapiens, UniProt P33261, R433W); test: Activity of human recombinant CYP2C19.5B mutant expressed in Saccharomyces cerevisiae BJ5457 assessed as omeprazole 5'-hydroxylation per pmol protein at 100 uM after 60 mins
Cytochrome P450 2C19 [10] = target: Cytochrome P450 2C19 (Homo sapiens, UniProt P33261, R329H); test: Activity of human recombinant CYP2C19.18 mutant expressed in Saccharomyces cerevisiae BJ5457 assessed as omeprazole 5'-hydroxylation per pmol protein at 100 uM after 60 mins
Cytochrome P450 2C19 [11] = target: T6, Cytochrome P450 2C19 (Homo sapiens, UniProt P33261, A161P); test: Activity of human recombinant CYP2C19 A161P mutant expressed in Saccharomyces cerevisiae BJ5457 assessed as omeprazole 5'-hydroxylation per pmol protein at 5 uM after 60 mins
Cytochrome P450 2C19 [12] = target: T7, Cytochrome P450 2C19 (Homo sapiens, UniProt P33261, P227L); test: Activity of human recombinant CYP2C19.10 mutant expressed in Saccharomyces cerevisiae BJ5457 assessed asomeprazole 5'-hydroxylation per pmol protein after 60 mins
Cytochrome P450 2C19 [13] = target: T8, Cytochrome P450 2C19 (Homo sapiens, UniProt P33261); test: Activity of human recombinant CYP2C19.1A mutant expressed in Saccharomyces cerevisiae BJ5457 assessed as intrinisic clearance foromeprazole 5'-hydroxylation per pmol protein after 60 mins
Cytochrome P450 2C19 [14] = target: T1, Cytochrome P450 2C19; test: Activity of human recombinant CYP2C19 E122A mutant expressed in Saccharomyces cerevisiae BJ5457 assessed asomeprazole 5'-hydroxylation after 60 mins
Cytochrome P450 2C19 [15] = target: T9, Cytochrome P450 2C19 (Homo sapiens, UniProt P33261, F168L); test: Activity of human recombinant CYP2C19 F168L mutant expressed in Saccharomyces cerevisiae BJ5457 assessed as omeprazole 5'-hydroxylation per pmol protein at 100 uM after 60 mins
Cytochrome P450 2C19 [16] = target: T10, Cytochrome P450 2C19 (Homo sapiens, UniProt P33261, V331I/R442C); test: Activity of human recombinant CYP2C19.16 mutant expressed in Saccharomyces cerevisiae BJ5457 assessed asomeprazole 5'-hydroxylation per pmol protein after 60 mins
Cytochrome P450 2C19 [17] = target: T5, Cytochrome P450 2C19; test: Activity of human recombinant CYP2C19.11 mutant expressed in Saccharomyces cerevisiae BJ5457 assessed asomeprazole 5'-hydroxylation after 60 mins
Cytochrome P450 2C19 [18] = target: T10, Cytochrome P450 2C19; test: Activity of human recombinant CYP2C19.16 mutant expressed in Saccharomyces cerevisiae BJ5457 assessed asomeprazole 5'-hydroxylation after 60 mins
Cytochrome P450 2C19 [19] = target: T3, Cytochrome P450 2C19; test: Activity of human recombinant CYP2C19 M74T mutant expressed in Saccharomyces cerevisiae BJ5457 assessed as intrinisic clearance foromeprazole 5'-hydroxylation per pmol protein after 60 mins
Cytochrome P450 2C19 [20] = target: T8, Cytochrome P450 2C19; test: Activity of human recombinant CYP2C19.1B mutant expressed in Saccharomyces cerevisiae BJ5457 assessed asomeprazole 5'-hydroxylation after 60 mins
Cytochrome P450 2C19 [21] = target: T9, Cytochrome P450 2C19; test: Activity of human recombinant CYP2C19 F168L mutant expressed in Saccharomyces cerevisiae BJ5457 assessed asomeprazole 5'-hydroxylation per pmol protein after 60 mins
Cytochrome P450 2C19 [22] = target: T10, Cytochrome P450 2C19; test: Activity of human recombinant CYP2C19.16 mutant expressed in Saccharomyces cerevisiae BJ5457 assessed as intrinisic clearance foromeprazole 5'-hydroxylation per pmol protein after 60 mins
Cytochrome P450 2C19 [23] = target: T7, Cytochrome P450 2C19; test: Activity of human recombinant CYP2C19.10 mutant expressed in Saccharomyces cerevisiae BJ5457 assessed as intrinisic clearance foromeprazole 5'-hydroxylation per pmol protein after 60 mins
Cytochrome P450 2C19 [24] = target: T8, Cytochrome P450 2C19; test: Activity of human recombinant CYP2C19.1B mutant expressed in Saccharomyces cerevisiae BJ5457 assessed as omeprazole 5'-hydroxylation per pmol protein at 5 uM after 60 mins
Cytochrome P450 2C19 [25] = target: T11, Cytochrome P450 2C19 (Homo sapiens, UniProt P33261, L17P); test: Activity of human recombinant CYP2C19.14 mutant expressed in Saccharomyces cerevisiae BJ5457 assessed as omeprazole 5'-hydroxylation per pmol protein at 100 uM after 60 mins
Cytochrome P450 2C19 [26] = target: Cytochrome P450 2C19 (Homo sapiens, UniProt P33261, E92D); test: Activity of human recombinant CYP2C19 E92D mutant expressed in Saccharomyces cerevisiae BJ5457 assessed as omeprazole 5'-hydroxylation per pmol protein at 100 uM after 60 mins
Cytochrome P450 2C19 [27] = target: T4, Cytochrome P450 2C19; test: Activity of human recombinant CYP2C19 W212C mutant expressed in Saccharomyces cerevisiae BJ5457 assessed asomeprazole 5'-hydroxylation per pmol protein after 60 mins
Cytochrome P450 2C19 [28] = target: T2, Cytochrome P450 2C19; test: Activity of human recombinant CYP2C19.19 mutant expressed in Saccharomyces cerevisiae BJ5457 assessed as intrinisic clearance foromeprazole 5'-hydroxylation per pmol protein after 60 mins
Cytochrome P450 2C19 [29] = target: T5, Cytochrome P450 2C19; test: Activity of human recombinant CYP2C19.11 mutant expressed in Saccharomyces cerevisiae BJ5457 assessed as omeprazole 5'-hydroxylation per pmol protein at 5 uM after 60 mins
Cytochrome P450 2C19 [30] = target: T11, Cytochrome P450 2C19; test: Activity of human recombinant CYP2C19.14 mutant expressed in Saccharomyces cerevisiae BJ5457 assessed asomeprazole 5'-hydroxylation per pmol protein after 60 mins
Cytochrome P450 2C19 [31] = target: T6, Cytochrome P450 2C19; test: Activity of human recombinant CYP2C19 A161P mutant expressed in Saccharomyces cerevisiae BJ5457 assessed as intrinisic clearance foromeprazole 5'-hydroxylation per pmol protein after 60 mins

Compound: COc1ccc2[nH]c([S+]([O-])Cc3ncc(C)c(OC)c3C)nc2c1 (stereo unspecified) [OMEPRAZOLE]
- Vmax (Cytochrome P450 2C19 [1]): 4.89 pmol/min
- Drug metabolism (Cytochrome P450 2C19 [2]): 2.82 pmol/min
- Km (Cytochrome P450 2C19 [3]): 3.62 µM
- Drug metabolism (Cytochrome P450 2C19 [4]): 0.58 pmol/min
- Drug metabolism [5]: metabolite_not_detected
- Km (Cytochrome P450 2C19 [6]): 4.87 µM
- Drug metabolism (Cytochrome P450 2C19 [7]): 6.38 pmol/min
- Vmax (Cytochrome P450 2C19 [8]): 9.59 pmol/min
- Drug metabolism (Cytochrome P450 2C19 [9]): metabolite_not_detected
- Drug metabolism (Cytochrome P450 2C19 [10]): 4.83 pmol/min
- Drug metabolism (Cytochrome P450 2C19 [11]): 0.65 pmol/min
- Vmax (Cytochrome P450 2C19 [12]): 5.35 pmol/min
- CL (Cytochrome P450 2C19 [13]): 1.49 µL/min
- Km (Cytochrome P450 2C19 [14]): 12.3 µM
- Drug metabolism (Cytochrome P450 2C19 [15]): 5.48 pmol/min
- Vmax (Cytochrome P450 2C19 [16]): 1.68 pmol/min
- Km (Cytochrome P450 2C19 [17]): 4.91 µM
- Km (Cytochrome P450 2C19 [18]): 4.17 µM
- CL (Cytochrome P450 2C19 [19]): 1.11 µL/min
- Km (Cytochrome P450 2C19 [20]): 4.16 µM
- Vmax (Cytochrome P450 2C19 [21]): 6.05 pmol/min
- CL (Cytochrome P450 2C19 [22]): 0.41 µL/min
- CL (Cytochrome P450 2C19 [23]): 0.5 µL/min
- Drug metabolism (Cytochrome P450 2C19 [24]): 2.73 pmol/min
- Drug metabolism (Cytochrome P450 2C19 [25]): 8.25 pmol/min
- Drug metabolism (Cytochrome P450 2C19 [26]): 7.02 pmol/min
- Vmax (Cytochrome P450 2C19 [27]): 2.04 pmol/min
- CL (Cytochrome P450 2C19 [28]): 0.66 µL/min
- Drug metabolism (Cytochrome P450 2C19 [29]): 2.84 pmol/min
- Vmax (Cytochrome P450 2C19 [30]): 8.05 pmol/min
- CL (Cytochrome P450 2C19 [31]): 0.24 µL/min
